Results: patent publication US20240190854A1, “PYRIMIDINE OR PYRIDINE DERIVATIVES USEFUL AS HCN2 MODULATORS” (King's College London, priority 2021, published 2024)
Counter-ions that a name gives are not always drawn.

Experiments:
[1] = target: HCN2 (Homo sapiens (Human), UniProt Q9UL51); test: HCN2 current assay using PatchXpress 7000A; type: cell-based; conditions: PatchXpress protocol; read-out: PX HCN2 IC50
Outline: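 Automated patch clamp (PatchXpress 7000A) at about 22° C. HCN current taken as leak-subtracted peak inward current at the end of a step to −110 mV, with a return to −30 mV for 8 seconds. Cumulative concentrations applied 7 minutes each; amplitude normalised to control.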

[2] = target: HCN4 (Homo sapiens (Human), UniProt Q9Y3Q4); test: HCN4 current assay using PatchXpress 7000A; type: cell-based; conditions: PatchXpress protocol; read-out: PX HCN4 IC50
Outline: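 Peak inward current taken at end of a −130 mV pulse, leak-subtracted, and normalized to the control amplitude. Cumulative concentrations applied for 7 min each at room temperature (approximately 22° C.) on an automated patch-clamp platform.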

[3] = target: HCN1 (Homo sapiens (Human), UniProt O60741); test: HCN1 current assay using PatchXpress 7000A; type: cell-based; conditions: PatchXpress protocol; read-out: PX HCN1 IC50
Sequence of HCN1 (O60741 whole entry, species assumed): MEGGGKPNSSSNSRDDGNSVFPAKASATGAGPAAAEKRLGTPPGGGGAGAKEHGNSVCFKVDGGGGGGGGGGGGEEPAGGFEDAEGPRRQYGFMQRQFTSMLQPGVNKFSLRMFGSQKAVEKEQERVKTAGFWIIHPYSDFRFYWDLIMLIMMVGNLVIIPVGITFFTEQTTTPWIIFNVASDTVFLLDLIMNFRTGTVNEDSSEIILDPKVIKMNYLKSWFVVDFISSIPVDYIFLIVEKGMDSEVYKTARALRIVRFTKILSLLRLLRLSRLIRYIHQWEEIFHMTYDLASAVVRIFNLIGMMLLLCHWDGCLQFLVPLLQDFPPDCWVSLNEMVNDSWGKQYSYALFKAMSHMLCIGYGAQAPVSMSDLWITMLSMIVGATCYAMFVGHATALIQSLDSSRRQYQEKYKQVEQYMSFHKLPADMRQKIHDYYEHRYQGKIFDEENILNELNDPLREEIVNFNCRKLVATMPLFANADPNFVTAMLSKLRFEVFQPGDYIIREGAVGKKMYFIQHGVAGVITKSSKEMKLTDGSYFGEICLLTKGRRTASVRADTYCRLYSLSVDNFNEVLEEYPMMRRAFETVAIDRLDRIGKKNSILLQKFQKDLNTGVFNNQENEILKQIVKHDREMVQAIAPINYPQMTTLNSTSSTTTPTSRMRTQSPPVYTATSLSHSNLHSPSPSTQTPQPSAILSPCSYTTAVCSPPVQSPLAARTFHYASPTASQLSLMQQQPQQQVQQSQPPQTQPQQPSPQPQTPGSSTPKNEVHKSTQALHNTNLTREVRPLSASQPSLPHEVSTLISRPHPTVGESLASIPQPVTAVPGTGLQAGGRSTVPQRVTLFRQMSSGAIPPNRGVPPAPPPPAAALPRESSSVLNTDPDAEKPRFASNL
Experimental: Example 126A, Using PatchXpress 7000A
Solutions for recording HCN currents were:
The membrane voltage was then stepped back to −30 mV for a further 8 seconds.
The peak inward current measured at the end of the pulse to −110 mV (HCN1 and HCN2) or −130 mV (HCN4) was measured and any leak current subtracted to calculate the HCN current. The HCN current amplitude was measured after each control or compound addition and normalized to the control amplitude (Control A).
All experiments were performed at room temperature (approximately 22° C.).
Each test compound concentration was applied to the cell for seven (7) minutes, at which point the next cumulative concentration was applied.

[4] = target: hNav1.5 (Homo sapiens (Human), UniProt Q14524)
Sequence of hNav1.5 (Q14524 whole entry): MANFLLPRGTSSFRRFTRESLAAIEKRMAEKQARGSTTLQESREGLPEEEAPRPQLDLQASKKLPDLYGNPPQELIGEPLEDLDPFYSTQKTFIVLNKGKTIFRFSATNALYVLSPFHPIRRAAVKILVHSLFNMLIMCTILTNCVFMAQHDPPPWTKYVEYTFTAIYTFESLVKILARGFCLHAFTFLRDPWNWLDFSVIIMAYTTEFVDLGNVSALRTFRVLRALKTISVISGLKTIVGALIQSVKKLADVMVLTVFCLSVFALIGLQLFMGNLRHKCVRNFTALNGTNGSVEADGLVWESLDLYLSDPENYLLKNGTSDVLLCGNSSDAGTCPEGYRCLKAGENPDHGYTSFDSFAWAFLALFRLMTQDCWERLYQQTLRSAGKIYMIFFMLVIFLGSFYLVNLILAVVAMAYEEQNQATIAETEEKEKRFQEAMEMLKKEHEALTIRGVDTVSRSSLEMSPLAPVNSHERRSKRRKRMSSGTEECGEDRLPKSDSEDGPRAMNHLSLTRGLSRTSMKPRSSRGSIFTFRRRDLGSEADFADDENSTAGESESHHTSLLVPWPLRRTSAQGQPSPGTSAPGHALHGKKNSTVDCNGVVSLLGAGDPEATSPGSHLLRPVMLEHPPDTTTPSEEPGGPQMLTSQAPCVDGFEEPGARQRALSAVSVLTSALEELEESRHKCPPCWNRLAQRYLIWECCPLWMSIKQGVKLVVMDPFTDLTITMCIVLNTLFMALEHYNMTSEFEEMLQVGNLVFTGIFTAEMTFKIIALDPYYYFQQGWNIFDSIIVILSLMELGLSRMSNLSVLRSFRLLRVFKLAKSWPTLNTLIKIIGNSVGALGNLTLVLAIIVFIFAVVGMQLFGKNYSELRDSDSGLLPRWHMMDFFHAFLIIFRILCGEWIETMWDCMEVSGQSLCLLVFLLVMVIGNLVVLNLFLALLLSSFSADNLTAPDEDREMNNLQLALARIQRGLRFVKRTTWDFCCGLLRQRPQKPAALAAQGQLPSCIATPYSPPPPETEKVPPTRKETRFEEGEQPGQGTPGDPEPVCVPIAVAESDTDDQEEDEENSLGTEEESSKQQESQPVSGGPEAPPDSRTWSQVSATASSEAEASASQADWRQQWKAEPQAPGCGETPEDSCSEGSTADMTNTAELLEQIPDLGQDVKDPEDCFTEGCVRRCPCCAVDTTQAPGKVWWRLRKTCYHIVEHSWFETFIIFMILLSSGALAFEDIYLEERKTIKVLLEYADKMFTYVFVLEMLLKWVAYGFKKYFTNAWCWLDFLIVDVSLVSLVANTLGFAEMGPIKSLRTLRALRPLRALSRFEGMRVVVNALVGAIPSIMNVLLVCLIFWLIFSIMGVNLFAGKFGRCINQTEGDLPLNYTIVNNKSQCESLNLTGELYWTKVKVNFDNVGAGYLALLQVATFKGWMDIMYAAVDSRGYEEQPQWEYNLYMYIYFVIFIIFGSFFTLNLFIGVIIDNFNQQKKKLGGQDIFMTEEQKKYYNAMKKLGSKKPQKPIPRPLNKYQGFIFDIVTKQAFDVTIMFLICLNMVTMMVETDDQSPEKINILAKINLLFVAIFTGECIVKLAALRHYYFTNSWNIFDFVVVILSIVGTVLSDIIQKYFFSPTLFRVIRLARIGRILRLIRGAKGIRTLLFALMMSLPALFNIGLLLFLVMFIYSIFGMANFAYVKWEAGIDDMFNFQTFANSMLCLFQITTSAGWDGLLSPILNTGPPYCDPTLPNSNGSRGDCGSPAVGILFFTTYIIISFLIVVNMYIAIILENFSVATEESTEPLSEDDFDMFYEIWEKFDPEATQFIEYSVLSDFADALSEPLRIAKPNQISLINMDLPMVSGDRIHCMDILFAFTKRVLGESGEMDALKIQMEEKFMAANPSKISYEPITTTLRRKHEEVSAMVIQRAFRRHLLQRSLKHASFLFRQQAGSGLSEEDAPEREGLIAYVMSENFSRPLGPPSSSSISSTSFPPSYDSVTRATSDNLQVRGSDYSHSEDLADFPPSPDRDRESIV
Experimental: Solutions for recording Nav1.5 currents were:
Electrophysiological recordings were made from a human embryonic kidney (HEK) cell line stably expressing the full length hNav1.5. Population patch clamp measurements were made in the perforated patch clamp configuration (100 μg ml^−1 amphotericin) at room temperature (approx. 22° C.) using an IonWorks Quattro from Molecular Devices. […] Currents were first measured under control (pre-compound addition) conditions. […] Currents were measured from the depolarising step at the 15th pulse and referenced to the holding current.

[5] = target: MDR1 (P-glycoprotein) (Homo sapiens (Human), UniProt P08183); test: in vitro; conditions: dog, MDCK-MDR1, pH 7.4
Sequence of MDR1 (P-glycoprotein) (P08183 whole entry): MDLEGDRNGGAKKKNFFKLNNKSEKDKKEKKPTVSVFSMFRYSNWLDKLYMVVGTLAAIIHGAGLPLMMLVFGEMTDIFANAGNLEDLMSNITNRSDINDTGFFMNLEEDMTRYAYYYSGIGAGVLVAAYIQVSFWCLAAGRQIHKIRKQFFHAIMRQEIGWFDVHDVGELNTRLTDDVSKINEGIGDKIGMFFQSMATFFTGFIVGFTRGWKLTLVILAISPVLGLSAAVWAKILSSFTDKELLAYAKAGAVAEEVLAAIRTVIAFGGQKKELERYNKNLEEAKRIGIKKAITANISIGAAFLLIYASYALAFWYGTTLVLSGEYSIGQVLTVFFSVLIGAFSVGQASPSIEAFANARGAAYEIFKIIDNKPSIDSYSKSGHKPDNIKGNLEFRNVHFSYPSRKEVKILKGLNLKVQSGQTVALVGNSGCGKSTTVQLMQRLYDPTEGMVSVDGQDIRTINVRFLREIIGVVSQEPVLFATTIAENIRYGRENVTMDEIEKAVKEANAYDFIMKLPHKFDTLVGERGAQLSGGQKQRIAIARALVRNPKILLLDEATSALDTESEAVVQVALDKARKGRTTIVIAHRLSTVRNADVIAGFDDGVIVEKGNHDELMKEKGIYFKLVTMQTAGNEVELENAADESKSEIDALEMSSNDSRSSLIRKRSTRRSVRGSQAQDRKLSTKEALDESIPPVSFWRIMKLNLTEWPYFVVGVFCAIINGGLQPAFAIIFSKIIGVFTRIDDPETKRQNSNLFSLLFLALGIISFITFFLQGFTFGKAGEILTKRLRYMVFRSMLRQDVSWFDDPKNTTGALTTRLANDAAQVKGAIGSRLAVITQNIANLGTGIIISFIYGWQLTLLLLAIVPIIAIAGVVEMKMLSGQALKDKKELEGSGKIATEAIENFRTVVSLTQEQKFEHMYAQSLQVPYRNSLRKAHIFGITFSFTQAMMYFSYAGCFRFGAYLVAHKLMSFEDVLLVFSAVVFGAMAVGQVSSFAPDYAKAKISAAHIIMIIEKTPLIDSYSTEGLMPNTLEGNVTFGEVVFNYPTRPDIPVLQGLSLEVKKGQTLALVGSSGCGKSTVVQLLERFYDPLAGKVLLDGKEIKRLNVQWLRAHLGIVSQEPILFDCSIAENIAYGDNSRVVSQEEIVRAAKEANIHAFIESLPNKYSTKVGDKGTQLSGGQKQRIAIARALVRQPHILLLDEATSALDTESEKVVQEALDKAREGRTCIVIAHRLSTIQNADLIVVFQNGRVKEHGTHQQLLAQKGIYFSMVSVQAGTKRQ

[6] = target: hERG channel (Homo sapiens (Human), UniProt Q12809); test: hERG assay using IonWorks Quattro; type: cell-based; conditions: IonWorks protocol; read-out: IW hERG IC50
Experimental: Example 127A, Using IonWorks Quattro
Solutions for recording hERG currents were:
This was followed by a […] step of is to −30 mV to evoke the hERG tail current. This sequence was repeated 5 times at a frequency of 0.25 Hz (see FIG. 3). Currents were measured from the tail step at the 5th pulse and referenced to the holding current. Compounds were then incubated for 6-7 minutes prior to a second measurement of the hERG signal using an identical pulse train.

Sequence of HCN2 (Q9UL51 whole entry): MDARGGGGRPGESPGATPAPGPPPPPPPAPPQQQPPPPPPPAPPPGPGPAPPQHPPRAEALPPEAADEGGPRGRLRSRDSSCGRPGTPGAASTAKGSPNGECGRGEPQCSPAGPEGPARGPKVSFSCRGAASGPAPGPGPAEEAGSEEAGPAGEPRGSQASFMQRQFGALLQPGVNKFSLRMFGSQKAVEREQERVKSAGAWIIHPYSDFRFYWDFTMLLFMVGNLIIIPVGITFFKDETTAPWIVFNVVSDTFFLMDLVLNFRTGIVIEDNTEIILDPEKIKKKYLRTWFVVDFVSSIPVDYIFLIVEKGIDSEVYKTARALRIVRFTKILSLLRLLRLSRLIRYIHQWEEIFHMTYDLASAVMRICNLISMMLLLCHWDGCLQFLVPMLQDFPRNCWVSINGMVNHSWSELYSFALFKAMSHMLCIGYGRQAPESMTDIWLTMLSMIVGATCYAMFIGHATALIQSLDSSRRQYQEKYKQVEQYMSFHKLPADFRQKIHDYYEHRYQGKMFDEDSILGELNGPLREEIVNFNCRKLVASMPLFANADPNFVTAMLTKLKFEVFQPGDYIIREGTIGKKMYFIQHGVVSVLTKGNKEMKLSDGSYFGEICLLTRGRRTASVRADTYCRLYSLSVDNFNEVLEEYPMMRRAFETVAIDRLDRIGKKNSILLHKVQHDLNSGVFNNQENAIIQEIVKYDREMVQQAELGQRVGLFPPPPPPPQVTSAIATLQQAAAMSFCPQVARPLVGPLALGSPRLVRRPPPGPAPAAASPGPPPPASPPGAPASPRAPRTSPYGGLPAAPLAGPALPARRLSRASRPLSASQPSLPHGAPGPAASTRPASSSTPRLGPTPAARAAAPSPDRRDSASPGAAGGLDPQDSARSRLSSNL

Compound | IC50 [1] [µM] | IC50 [2] [µM] | IC50 [3] [µM] | IC50 [4] [µM] | efflux ratio at 1 h, 10 μM [5] | IC50 [6] [µM]
COc1ccnc(C[C@H](N)c2ccccc2-c2noc3ccccc23)c1 [Example 70, (S)-1-[2-(Benzo[d]isoxazol-3-yl)phenyl]-2-(4-methoxypyridin-2-yl)ethan-1-amine] | 1 | 19.1 | 3.8 |  |  | 
N[C@@H](Cc1ccccn1)c1ccccc1-c1noc2cc(CO)ccc12 [Example 30, (S)-1-[2-(6-Hyroxymethylbenzo[d]isoxazol-3-yl)phenyl]-2-(pyridine-2-yl)ethan-1-amine hydrochloride] | 3 | 12.8 | 3 |  |  | 
N[C@@H](Cc1ccc(F)cn1)c1ccccc1-c1noc2ccccc12 [Example 69, (S)-1-[2-(Benzo[d]isoxazol-3-yl)phenyl]-2-(5-fluoropyridin-2-yl)ethan-1-amine hydrochloride] | 0.5 | 8.2 | 1.4 |  |  | 
N#Cc1ccc2c(-c3ccccc3[C@@H](N)Cc3ccccn3)noc2c1 [Example 29, (S)-1-[2-(6-Cyanobenzo[d]isoxazol-3-yl)phenyl]-2-(pyridine-2-yl)ethan-1-amine] | 4.3 | > 30 | 8.9 |  |  | 
N[C@@H](Cc1cccc(CCO)n1)c1ccccc1-c1noc2ccccc12 [Example 100, (S)-1-[2-(Benzo[d]isoxazol-3-yl)phenyl]-2-[6-(2-hydroxyethyl)pyridine-2-yl]ethan-1-amine hydrochloride] | 2.3 | > 30 |  | 2.8 | 8.7 | 12.8
Cc1ccc(F)c(C[C@H](N)c2ccccc2-c2noc3ccccc23)n1 [Example 73, (S)-1-[2-(Benzo[d]isoxazol-3-yl)phenyl]-2-(3-fluoro-6-methylpyridin-2-yl)ethan-1-amine hydrochloride] | 0.4 | 2.8 | 0.5 |  |  | 
CNc1cccc(C[C@H](N)c2ccccc2-c2noc3cc(C#N)ccc23)n1 [Example 97, (S)-1-[2-(6-Cyanobenzo[d]isoxazol-3-yl)phenyl]-2-(6-methylaminopyridine-2-yl)ethan-1-amine dihydrochloride] | 2.6 | 13.3 |  | 8.4 | 12.2 | 0.54
N[C@@H](Cc1ncccc1F)c1ccccc1-c1noc2ccccc12 [Example 63, (S)-1-[2-(Benzo[d]isoxazol-3-yl)phenyl]-2-(3-fluoropyridin-2-yl)ethan-1-amine hydrochloride] | 0.5 | > 30 | 8 |  |  | 
N#Cc1ccc(F)c(C[C@H](N)c2ccccc2-c2noc3ccccc23)n1 [Example 71, (S)-1-[2-(Benzo[d]isoxazol-3-yl)phenyl]-2-(6-cyano-3-fluoropyridin-2-yl)ethan-1-amine formate] | 0.5 | 3.5 | 4.4 |  |  | 
N#Cc1nc(C[C@H](N)c2ccccc2-c2noc3ccccc23)ccc1F [Example 6, (S)-1-[2-(Benzo[d]isoxazol-3-yl)phenyl]-2-(6-cyano-5-fluoropyridine-2-yl)ethan-1-amine hydrochloride] | 0.39 | 8.1 | 1.8 |  |  | 
Cc1cccc(-c2noc3ccccc23)c1[C@@H](N)Cc1ccccn1 [Example 84, (S)-1-[2-(Benzo[d]isoxazol-3-yl)-6-methylphenyl]-2-(pyridine-2-yl)ethan-1-amine hydrochloride] | 0.9 | 27 |  | 5.7 | 0.8 | 3
N[C@@H](Cc1ccccn1)c1ccccc1-c1noc2ccccc12 [Example 42, (S)-1-[2-(Benzo[d]isoxazol-3-yl)phenyl]-2-(pyridine-2-yl)ethan-1-amine hydrochloride] | 1.1 | > 30 |  | 6.9 | 1.5 | 3.8
